Experimental data as given in the NIST ThermoML archive (doi:10.1021/je300775u).

Assay: xn = mol fraction of the nth substance listed
Conditions: 101 kPa, Liquid; for speed of sound: Pulse-echo method; for mass density: Vibrating tube method

ClC(Cl)(Cl)Br [bromotrichloromethane] + BrCBr
Conditions | mass density, 293.15 K [kg/m3] | mass density, 298.15 K [kg/m3] | mass density, 303.15 K [kg/m3] | mass density, 308.15 K [kg/m3] | mass density, 313.15 K [kg/m3] | speed of sound, 293.15 K [m/s] | speed of sound, 298.15 K [m/s] | speed of sound, 303.15 K [m/s] | speed of sound, 308.15 K [m/s] | speed of sound, 313.15 K [m/s]
x1 = 0.0506 | 2455.57 | 2442.67 | 2429.69 | 2416.74 | 2403.73 | 957 | 944.4 | 931.7 | 919.1 | 906.4
x1 = 0.0993 | 2424.17 | 2411.4 | 2398.59 | 2385.75 | 2372.87 | 953 | 940.3 | 927.6 | 914.8 | 902.2
x1 = 0.1491 | 2392.98 | 2380.34 | 2367.61 | 2354.94 | 2342.21 | 948.9 | 936.2 | 923.4 | 910.7 | 898.1
x1 = 0.1991 | 2363.17 | 2350.66 | 2338.13 | 2325.48 | 2312.93 | 945.3 | 932.6 | 919.8 | 907.1 | 894.4
x1 = 0.2473 | 2335.59 | 2323.21 | 2310.8 | 2298.33 | 2285.84 | 942.1 | 929.3 | 916.5 | 903.7 | 891
x1 = 0.2986 | 2307.34 | 2295.08 | 2282.77 | 2270.45 | 2258.08 | 939.1 | 926.2 | 913.2 | 900.4 | 887.7
x1 = 0.3465 | 2281.89 | 2269.75 | 2257.58 | 2245.37 | 2233.11 | 936.3 | 923.3 | 910.5 | 897.6 | 884.8
x1 = 0.3979 | 2255.64 | 2243.64 | 2231.57 | 2219.48 | 2207.34 | 933.6 | 920.7 | 907.7 | 894.8 | 882
x1 = 0.4468 | 2231.41 | 2219.49 | 2207.52 | 2195.5 | 2183.5 | 931.3 | 918.3 | 905.3 | 892.4 | 879.5
x1 = 0.4967 | 2207.74 | 2195.91 | 2184.02 | 2172.16 | 2160.25 | 929.1 | 916.1 | 903.1 | 890.1 | 877.1
x1 = 0.5462 | 2185.38 | 2173.66 | 2161.9 | 2150.12 | 2138.31 | 927.2 | 914.1 | 901.1 | 888 | 875.1
x1 = 0.5975 | 2162.89 | 2151.29 | 2139.5 | 2128 | 2116.3 | 925.3 | 912.2 | 899.1 | 886.1 | 873.1
x1 = 0.6479 | 2141.49 | 2130.01 | 2118.46 | 2106.9 | 2095.25 | 923.7 | 910.6 | 897.4 | 884.4 | 871.4
x1 = 0.6947 | 2122.35 | 2110.96 | 2099.49 | 2087.96 | 2076.47 | 922.4 | 909.2 | 896 | 882.8 | 869.9
x1 = 0.7469 | 2101.9 | 2090.59 | 2079.21 | 2067.83 | 2056.41 | 921 | 907.7 | 894.5 | 881.4 | 868.4
x1 = 0.7959 | 2083.33 | 2072.08 | 2060.79 | 2049.47 | 2038.17 | 919.9 | 906.6 | 893.4 | 880.2 | 867.1
x1 = 0.8494 | 2063.55 | 2052.39 | 2041.21 | 2030.02 | 2018.79 | 918.8 | 905.5 | 892.2 | 879 | 865.9
x1 = 0.898 | 2046.2 | 2035.13 | 2024.04 | 2012.93 | 2001.78 | 918 | 904.6 | 891.3 | 878.1 | 865
x1 = 0.9469 | 2029.71 | 2018.65 | 2007.69 | 1996.65 | 1985.57 | 917.4 | 904 | 890.6 | 877.3 | 864.1
x1 = 1 | 2013.06 | 2002.14 | 1991.2 | 1980.24 | 1969.25 | 917.1 | 903.6 | 890.2 | 876.8 | 863.6
